Results on twelve compounds are retold here after patent US10047080B2, “(R)-2-methyl-piperazine derivatives as CXCR3 receptor modulators” (Idorsia Pharmaceuticals Ltd., priority 2015, dated 2018).

What all share (type): cell-based
The target in one series is hERG K channel (Homo sapiens (Human), UniProt Q12809). The experiment in a line: hERG Q-Patch assay. The note with it: CHO cells expressing hERG, K+ tail current. The procedure:
Compounds are evaluated for block of the hERG K channel using CHO cells stably expressing the hERG gene (accession number U04270, bSys, Witterswil, Switzerland) and the QPatch robotic platform (Sophion, Ballerup, Denmark) in single-cell mode at room temperature. Cells are grown in culture flasks at 37° C. in 5% CO2, in culture medium (Ham's F-12 Nutrient Mixture, Invitrogen 21765-029) supplemented with 9% (v/v) fetal calf serum, 0.9% Penicillin/Streptomycin (10,000 U/mL, Invitrogen 15140148), 100 μg/mL Hygromycin B (Invitrogen 10687010). When the cells are ˜80% confluent (every 2-3 days), they are either split for further culture or used for electrophysiology. For further culture, cells are detached with 0.25% Trypsin EDTA solution (Invitrogen 25200-056) and a fraction of the cells (10-30%) is reseeded in culture medium. For electrophysiology, on the experimental day, cells are detached with 0.25% Trypsin EDTA solution and all cells are suspended in suspension medium (293 SFM II, Invitrogen 11686-029) supplemented with 20 mM HEPES and 0.04 mg/mL Trypsin inhibitor. Cells are kept in suspension medium at 32-35° C. in the QPatch robot until use, at which time aliquots are transferred to the extracellular solution (in mM: NaCl 150; KCl 4; CaCl2 1.2; MgCl2 1; HEPES 10; pH 7.4 with NaOH) containing 0.3% v/v DMSO and applied to the test plates. K+ currents are measured with the patch-voltage-clamp technique in the whole-cell configuration with the internal solution (in mM: KCl, 140; NaCl, 10; MgCl2, 1; HEPES, 10; EGTA, 5; pH=7.2 with KOH). Currents are low-pass filtered using the internal Bessel filter of the QPatch robot with a cut-off frequency of 2 kHz and are digitized at 10 kHz. K^+ tail currents are produced from a holding voltage of −80 mV by a 500-ms depolarization to +20 mV followed by a 500-ms repolarization to −40 mV; tail current amplitudes are measured at the end of the repolarization to −40 mV. The pulse pattern is repeated every 10 sec during the experiment, baseline K^+ current is measured after 3 min in extracellular solution, test-solution containing compound is then applied, and K^+ current in presence of compound is measured 3 minutes after application to the cells. The respective test-solution is prepared by (1) dissolving the test-compound in pure DMSO, (2) diluting this DMSO solution in extracellular solution, and (3) adding further DMSO, such that the final test-solution has a concentration of either 300 nM or 3000 nM of the test-compound and contains 0.3% v/v DMSO. Compound effects are quantified as % block by dividing the current in presence of compound by the baseline current; two or three experiments are performed for each compound and the final value represents the mean of the results of each experiment.

In a further series the target is human CXCR3A (Homo sapiens (Human), UniProt P49682). The experiment in a line: FLIPR assay (calcium flux, CXCL10-induced). To be noted: CHO-K1 cells expressing human CXCR3A coupled to Galpha(16); CXCL10 agonist at 20 nM. The procedure:
The bioactivity of compounds is tested in a fluorometric imaging plate reader (FLIPR: Molecular Devices) using engineered CHO-K1 cells expressing the human CXCR3A (GenBank: AY242128) coupled to a G protein (Galpha(16)). Cells are plated the day prior to bioassay in F12 medium supplemented with 10% FBS and G418 and hygromycin antibiotics to maintain recombinant selection. At the day of bioassay, cells are washed and dye loaded for one hour with Fluo-4-AM (Invitrogen) in Hanks Balanced Salt Solution (Invitrogen), buffered with 20 mM Hepes at pH 7.4 and sodium bicarbonate (0.038%), containing 5 mM probenecid. This buffer, but lacking the dye and containing probenecid at a concentration of 2.5 mM, is also used for washing steps (wash buffer); or lacking both dye and probenecid but supplemented with 0.1% BSA for compound dilution steps (dilution buffer). Cells are washed free of excess dye and 60 microliter of wash buffer is added. Stock solutions of test compounds are made up at a concentration of 10 mM in DMSO, and serially diluted in dilution buffer to concentrations required for inhibition dose response curves. After a 10 minute incubation period at 37° C., 10 microliters of each compound dilution are transferred from a compound plate to the plate containing the recombinant cells in the FLIPR instrument according to the manufacturer's instructions. Following basal readings, 10 microliter CXCL10 agonist at a concentration of 20 nM (from Peprotech) is added, again using the FLIPR instrument. Changes in fluorescence are monitored before and after addition of the test compounds. Emission peak values above base level after CXCL10 addition are exported after base line subtraction.
(§1) The calculated IC50 values may fluctuate depending on the daily assay performance. Fluctuations of this kind are known to those skilled in the art. In the case where IC50 values have been determined several times for the same compound, mean values are given. Data for the FLIPR assay are shown in Table 1 and for the receptor internalization assay (RIA) in Table 2.

The next series deals with CXCR3 (Homo sapiens (Human), UniProt P49682). The experiment in a line: Receptor internalization assay (RIA) in human whole blood. The note with it: final CXCL10 9 nM, CXCR3 surface expression on CD4 positive cells. The procedure:
Stock solutions of test compounds are made up at a concentration of 10 mM in DMSO, and serially diluted in PBS containing 0.5% BSA to concentrations required for inhibition dose response curves. Diluted compounds are then mixed with an equal volume of CXCL10 (Peprotech) diluted in PBS. Anticoagulated venous human whole blood is added to the mixture, which is then incubated in a CO2 incubator at 37° C. to allow for ligand mediated receptor internalization (final CXCL10 concentration is 9 nM). After 30 min, the blood is mixed with fluorescently labeled CXCR3 and CD4 specific antibodies (Becton Dickinson) and incubated on ice for 10 minutes. Samples are then mixed with BD FACS Lysing Solution (Becton Dickinson) in order to eliminate red blood cells. After washing the cells with PBS containing 0.5% BSA, the samples are then analyzed in a flow cytometer (FACS Canto II, Becton Dickinson). For data analysis using FACSDiva software (Becton Dickinson), the mean fluorescence corresponding to CXCR3 cell surface expression was determined on CD4 positive cells.
as §1

human CXCR3A, sequence (P49682 whole entry): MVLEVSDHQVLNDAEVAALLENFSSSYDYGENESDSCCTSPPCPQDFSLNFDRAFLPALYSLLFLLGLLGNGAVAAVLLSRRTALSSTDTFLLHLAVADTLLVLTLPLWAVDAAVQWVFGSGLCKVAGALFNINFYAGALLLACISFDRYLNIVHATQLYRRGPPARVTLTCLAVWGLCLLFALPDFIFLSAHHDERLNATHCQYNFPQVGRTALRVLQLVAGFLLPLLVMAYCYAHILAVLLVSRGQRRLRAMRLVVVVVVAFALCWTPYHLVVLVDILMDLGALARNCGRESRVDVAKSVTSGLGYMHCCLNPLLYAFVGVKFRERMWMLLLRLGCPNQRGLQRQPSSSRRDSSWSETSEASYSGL
CXCR3, sequence (P49682 whole entry): as above
hERG K channel, sequence (Q12809 whole entry): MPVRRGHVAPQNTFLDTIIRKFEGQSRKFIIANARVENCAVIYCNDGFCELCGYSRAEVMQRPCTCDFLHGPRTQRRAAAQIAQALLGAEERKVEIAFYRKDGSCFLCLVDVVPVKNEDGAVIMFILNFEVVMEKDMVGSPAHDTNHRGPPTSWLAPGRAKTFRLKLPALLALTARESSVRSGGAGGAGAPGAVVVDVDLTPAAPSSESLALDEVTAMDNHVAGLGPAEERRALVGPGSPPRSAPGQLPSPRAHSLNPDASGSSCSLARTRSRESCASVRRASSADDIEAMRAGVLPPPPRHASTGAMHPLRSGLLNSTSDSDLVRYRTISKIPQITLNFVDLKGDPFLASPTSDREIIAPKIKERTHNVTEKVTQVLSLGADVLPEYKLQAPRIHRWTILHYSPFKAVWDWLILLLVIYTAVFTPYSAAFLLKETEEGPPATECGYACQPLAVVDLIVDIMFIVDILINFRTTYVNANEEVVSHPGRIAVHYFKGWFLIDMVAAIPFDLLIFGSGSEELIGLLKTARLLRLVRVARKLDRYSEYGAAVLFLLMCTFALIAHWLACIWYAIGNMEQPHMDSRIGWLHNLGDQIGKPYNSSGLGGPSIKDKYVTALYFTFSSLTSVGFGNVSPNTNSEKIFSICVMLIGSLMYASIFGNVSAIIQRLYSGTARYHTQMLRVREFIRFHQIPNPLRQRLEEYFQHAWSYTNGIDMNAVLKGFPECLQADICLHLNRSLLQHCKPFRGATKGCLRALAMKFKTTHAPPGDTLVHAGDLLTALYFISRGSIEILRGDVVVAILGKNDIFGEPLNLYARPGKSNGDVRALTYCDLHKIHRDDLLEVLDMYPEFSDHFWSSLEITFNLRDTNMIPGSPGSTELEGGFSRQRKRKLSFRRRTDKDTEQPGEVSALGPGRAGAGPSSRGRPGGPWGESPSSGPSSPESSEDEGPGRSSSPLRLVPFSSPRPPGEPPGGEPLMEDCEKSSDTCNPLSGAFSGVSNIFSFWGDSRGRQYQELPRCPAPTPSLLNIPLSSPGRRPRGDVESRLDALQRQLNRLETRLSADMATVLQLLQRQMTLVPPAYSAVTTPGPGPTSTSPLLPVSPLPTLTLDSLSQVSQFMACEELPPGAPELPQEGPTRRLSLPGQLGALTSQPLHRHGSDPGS

As for `CC(C)c1ncn(CC(=O)N2CCN(c3sc(C(F)(F)F)nc3-c3cnc(C(F)(F)F)nc3)C[C@H]2C)n1` [Example 7, 2-(3-Isopropyl-[1,2,4]triazol-1-yl)-1-{(R)-2-methyl-4-[2-trifluoromethyl-4-(2-trifluoromethyl-pyrimidin-5-yl)-thiazol-5-yl]-piperazin-1-yl}-ethanone], the “% block” value was 5% on hERG K channel (concentration 300 nM) and 24% at hERG K channel (concentration 3000 nM). For the same compound, the IC50 at human CXCR3A was found to be 1.3 nM; against CXCR3, 174 nM.

Consider `C[C@@H]1CN(c2sc(C(F)(F)F)nc2-c2cnc(C(F)(F)F)nc2)CCN1C(=O)Cn1cnc(C(C)(C)O)n1` [Example 13, 2-[3-(1-Hydroxy-1-methyl-ethyl)-[1,2,4]triazol-1-yl]-1-{(R)-2-methyl-4-[2-trifluoromethyl-4-(2-trifluoromethyl-pyrimidin-5-yl)-thiazol-5-yl]-piperazin-1-yl}-ethanone], for which the entries for the “% block” value at hERG K channel (concentration 300 nM) and at hERG K channel (concentration 3000 nM) were 10% and 21%, respectively. The IC50 was 3.2 nM on human CXCR3A and 830 nM against CXCR3.

Take `COCc1ncn(CC(=O)N2CCN(c3sc(C(F)(F)F)nc3-c3cnc(C4CC4)nc3)C[C@H]2C)n1` [Example 18, 1-{(R)-4-[4-(2-Cyclopropyl-pyrimidin-5-yl)-2-trifluoromethyl-thiazol-5-yl]-2-methyl-piperazin-1-yl}-2-(3-methoxymethyl-[1,2,4]triazol-1-yl)-ethanone]: the “% block” value on hERG K channel (concentration 300 nM) was 10%; at hERG K channel (concentration 3000 nM), 22%. Besides, the IC50 at human CXCR3A worked out at 3.1 nM; against CXCR3 it was 1390 nM.

Turning to `C[C@@H]1CN(c2sc(C(F)(F)F)nc2-c2cnc(C(F)(F)F)nc2)CCN1C(=O)Cn1cnc(CO)n1` [Example 10, 2-(3-Hydroxymethyl-[1,2,4]triazol-1-yl)-1-{(R)-2-methyl-4-[2-trifluoromethyl-4-(2-trifluoromethyl-pyrimidin-5-yl)-thiazol-5-yl]-piperazin-1-yl}-ethanone], the figures for the “% block” value on hERG K channel (concentration 300 nM) and at hERG K channel (concentration 3000 nM) were 6% and 17%, respectively. The IC50 worked out at 5.2 nM at human CXCR3A and 809 nM against CXCR3.

Regarding `CCOc1ncc(-c2nc(C(F)(F)F)sc2N2CCN(C(=O)Cn3cnc(CC)n3)[C@H](C)C2)cn1` [Example 2, 1-{(R)-4-[4-(2-Ethoxy-pyrimidin-5-yl)-2-trifluoromethyl-thiazol-5-yl]-2-methyl-piperazin-1-yl}-2-(3-ethyl-[1,2,4]triazol-1-yl)-ethanone], the “% block” value on hERG K channel (concentration 300 nM) is on record as −2%; on hERG K channel (concentration 3000 nM), 4%. Besides, the IC50 on human CXCR3A turned out to be 1.6 nM; on CXCR3, 235 nM.

With `CCOc1ncc(-c2nc(C(F)(F)F)sc2N2CCN(C(=O)Cn3cnc(C(C)C)n3)[C@H](C)C2)cn1` [Example 1, 1-{(R)-4-[4-(2-Ethoxy-pyrimidin-5-yl)-2-trifluoromethyl-thiazol-5-yl]-2-methyl-piperazin-1-yl}-2-(3-isopropyl-[1,2,4]triazol-1-yl)-ethanone], the “% block” value is on record as 6% on hERG K channel (concentration 300 nM) and 20% at hERG K channel (concentration 3000 nM). Also, the half-maximal inhibitory concentration (IC50) on human CXCR3A amounted to 2.3 nM; against CXCR3, 299 nM.

For the compound `CCOc1ncc(-c2nc(C(F)(F)F)sc2N2CCN(C(=O)Cn3cnc(C(C)(C)C)n3)[C@H](C)C2)cn1` [Example 3, 2-(3-tert-Butyl-[1,2,4]triazol-1-yl)-1-{(R)-4-[4-(2-ethoxy-pyrimidin-5-yl)-2-trifluoromethyl-thiazol-5-yl]-2-methyl-piperazin-1-yl}-ethanone], the “% block” value is given as 10% on hERG K channel (concentration 300 nM) and 20% at hERG K channel (concentration 3000 nM). In addition, the IC50 on human CXCR3A was found to be 1 nM; on CXCR3, 552 nM.

As for `CCCc1ncn(CC(=O)N2CCN(c3sc(C(F)(F)F)nc3-c3cnc(C(F)(F)F)nc3)C[C@H]2C)n1` [Example 11, 1-{(R)-2-Methyl-4-[2-trifluoromethyl-4-(2-trifluoromethyl-pyrimidin-5-yl)-thiazol-5-yl]-piperazin-1-yl}-2-(3-propyl-[1,2,4]triazol-1-yl)-ethanone], the “% block” value on hERG K channel (concentration 300 nM) is recorded as 5%; on hERG K channel (concentration 3000 nM), 30%. For the same compound, the figures for the IC50 on human CXCR3A and against CXCR3 were 4.4 nM and 221 nM, respectively.

Turning to `CCc1ncn(CC(=O)N2CCN(c3sc(C(F)(F)F)nc3-c3cnc(C4CC4)nc3)C[C@H]2C)n1` [Example 15, 1-{(R)-4-[4-(2-Cyclopropyl-pyrimidin-5-yl)-2-trifluoromethyl-thiazol-5-yl]-2-methyl-piperazin-1-yl}-2-(3-ethyl-[1,2,4]triazol-1-yl)-ethanone], the “% block” value at hERG K channel (concentration 300 nM) came to 3%; on hERG K channel (concentration 3000 nM), 27%. Moreover, the IC50 is 2.5 nM at human CXCR3A and 190 nM against CXCR3.

Turning to `C[C@@H]1CN(c2sc(C(F)(F)F)nc2-c2cnc(C3CC3)nc2)CCN1C(=O)Cn1cnc(C(C)(C)C)n1` [Example 17, 2-(3-tert-Butyl-[1,2,4]triazol-1-yl)-1-{(R)-4-[4-(2-cyclopropyl-pyrimidin-5-yl)-2-trifluoromethyl-thiazol-5-yl]-2-methyl-piperazin-1-yl}-ethanone], the “% block” value at hERG K channel (concentration 300 nM) is 0%; at hERG K channel (concentration 3000 nM), 23%. Besides, the IC50 on human CXCR3A worked out at 4.6 nM; at CXCR3, 679 nM.

As for `Cc1ncn(CC(=O)N2CCN(c3sc(C(F)(F)F)nc3-c3cnc(C4CC4)nc3)C[C@H]2C)n1` [Example 21, 1-{(R)-4-[4-(2-Cyclopropyl-pyrimidin-5-yl)-2-trifluoromethyl-thiazol-5-yl]-2-methyl-piperazin-1-yl}-2-(3-methyl-[1,2,4]triazol-1-yl)-ethanone], the “% block” value on hERG K channel (concentration 300 nM) is on record as 3%; on hERG K channel (concentration 3000 nM) it was 17%. Besides, the IC50 on human CXCR3A is 5.2 nM; against CXCR3, 462 nM.

For the compound `C[C@@H]1CN(c2sc(C(F)(F)F)nc2-c2cnc(C(F)(F)F)nc2)CCN1C(=O)Cn1cnc(C(C)(C)C)n1` [Example 8, 2-(3-tert-Butyl-[1,2,4]triazol-1-yl)-1-{(R)-2-methyl-4-[2-trifluoromethyl-4-(2-trifluoromethyl-pyrimidin-5-yl)-thiazol-5-yl]-piperazin-1-yl}-ethanone], the “% block” value was 4% at hERG K channel (concentration 300 nM) and 23% at hERG K channel (concentration 3000 nM). Besides, the IC50 on human CXCR3A was 1.6 nM; on CXCR3, 349 nM.
